The text below walks through data of US9359423B2, “Protein involved in detection of cancer metastasis and a treatment thereof” (National University of Singapore, priority 2011, dated 2016).

Data set [1] has as its target T1, TRPV4 (Homo sapiens, UniProt Q9HBA0). As to conditions: cited from earlier work.
Data set [2] has as its system E-cadherin, b-catenin and paxillin. Kind of data set: Expression of cell-adhesion proteins after activation of TRPV4 by PDD. Conditions: PDD treatment, FIG. 4B. Type of data set: cell-based. From the text: (§1) FIG. 4A—Silencing of TRPV4 expression was associated with a failure to produce a rise of intracellular Ca2+ upon stimulation with PDD. […] 4C—Activation of TRPV4 by PDD treatment stimulated AKT, FAK and MAPK pathway.
FIG. 5—AKT mediates TRPV4-induced downregulation of E-cadherin and b-catenin. Down regulation of these cytoskeletal proteins correlate with an increase in cancer cell plasticity required for intravasation and extravasation processes during metastasis. Cells were either treated or not treated with PDD (activator of TRPV4) in the presence or absence of AKT inhibitor). Top 1 and 2 panels, inhibition of AKT is confirmed by probing the phosphorylation status of S6, a downstream target of AKT. Bottom 3-5 panels, PDD-induced downregulation of E-cadherin and b-catenin.

The subject of data set [3] is AKT, FAK and MAPK pathway. Kind of data set: Pathway activation after activation of TRPV4 by PDD. Type of data set: cell-based. Conditions: PDD treatment, FIG. 4C.
Text: as §1

For another data set, the target named is T2, endogenous TRPV4 (Mus musculus, UniProt Q9EPK8).
T2 construct: endogenous in cells
Conditions: read-out: IC50, endogenous TRPV4-mediated response to 4α-PDH; 4α-PDH stimulation; cited from earlier work.

For data set [4] the following is noted: cited from earlier work.
Data set [5] has as its target T1, TRPV4. As to conditions: 4α-phorbol 12,13-didecanoate stimulation; cited from earlier work.

T1 sequence (Q9HBA0 whole entry, species assumed): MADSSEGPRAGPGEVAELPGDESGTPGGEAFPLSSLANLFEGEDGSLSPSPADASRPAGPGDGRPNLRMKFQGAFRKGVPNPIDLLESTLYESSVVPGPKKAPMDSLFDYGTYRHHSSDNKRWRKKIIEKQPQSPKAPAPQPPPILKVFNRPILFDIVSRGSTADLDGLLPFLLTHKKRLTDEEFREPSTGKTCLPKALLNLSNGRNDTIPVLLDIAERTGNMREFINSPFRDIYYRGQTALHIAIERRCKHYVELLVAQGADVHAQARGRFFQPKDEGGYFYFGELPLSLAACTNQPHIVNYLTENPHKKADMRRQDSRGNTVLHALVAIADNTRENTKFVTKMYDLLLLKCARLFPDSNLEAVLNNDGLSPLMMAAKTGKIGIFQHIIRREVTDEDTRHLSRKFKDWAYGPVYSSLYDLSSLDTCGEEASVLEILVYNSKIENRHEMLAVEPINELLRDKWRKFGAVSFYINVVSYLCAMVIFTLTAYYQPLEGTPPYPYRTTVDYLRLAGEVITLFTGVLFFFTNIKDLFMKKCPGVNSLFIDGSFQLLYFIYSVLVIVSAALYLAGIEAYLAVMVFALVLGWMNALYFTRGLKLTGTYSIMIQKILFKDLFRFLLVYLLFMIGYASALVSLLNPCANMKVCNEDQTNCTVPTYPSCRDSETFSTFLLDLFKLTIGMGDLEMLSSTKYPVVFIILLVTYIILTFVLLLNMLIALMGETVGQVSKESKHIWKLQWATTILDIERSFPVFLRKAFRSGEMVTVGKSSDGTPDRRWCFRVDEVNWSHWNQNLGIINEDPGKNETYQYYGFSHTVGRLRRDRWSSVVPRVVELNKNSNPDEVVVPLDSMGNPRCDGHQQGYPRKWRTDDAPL
T2 sequence (Q9EPK8 whole entry): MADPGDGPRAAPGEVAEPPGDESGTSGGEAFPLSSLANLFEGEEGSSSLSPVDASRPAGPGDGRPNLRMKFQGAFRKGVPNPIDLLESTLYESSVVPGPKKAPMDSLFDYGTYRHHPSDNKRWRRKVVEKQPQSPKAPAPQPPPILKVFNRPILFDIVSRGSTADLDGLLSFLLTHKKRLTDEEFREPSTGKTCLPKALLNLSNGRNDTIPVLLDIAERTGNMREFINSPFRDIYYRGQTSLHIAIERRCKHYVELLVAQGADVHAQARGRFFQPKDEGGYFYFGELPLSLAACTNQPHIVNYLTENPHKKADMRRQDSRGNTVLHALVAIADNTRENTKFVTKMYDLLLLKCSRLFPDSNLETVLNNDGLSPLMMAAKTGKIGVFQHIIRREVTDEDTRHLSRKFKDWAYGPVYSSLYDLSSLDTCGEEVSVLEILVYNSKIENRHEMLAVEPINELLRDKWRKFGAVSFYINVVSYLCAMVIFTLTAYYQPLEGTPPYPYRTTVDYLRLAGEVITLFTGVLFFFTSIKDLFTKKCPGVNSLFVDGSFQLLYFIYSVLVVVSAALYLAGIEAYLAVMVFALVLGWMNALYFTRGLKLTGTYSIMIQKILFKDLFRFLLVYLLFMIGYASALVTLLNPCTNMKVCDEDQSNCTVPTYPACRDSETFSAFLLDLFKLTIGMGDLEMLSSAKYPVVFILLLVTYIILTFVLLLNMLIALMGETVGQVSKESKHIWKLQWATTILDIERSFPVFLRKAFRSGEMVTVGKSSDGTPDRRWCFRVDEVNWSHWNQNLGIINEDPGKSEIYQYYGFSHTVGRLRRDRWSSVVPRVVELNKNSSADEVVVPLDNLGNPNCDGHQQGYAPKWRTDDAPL

`N.N.N.N.N.N.N.N.N.N.N.N.N.N.[Cl-].[Cl-].[Cl-].[Cl-].[Cl-].[Cl-].[O-2].[O-2].[Ru+3].[Ru+3].[Ru+4]` [Ruthenium red]: the “Inhibition of TRPV4” value at TRPV4 [1] is “known inhibitor of TRPV4”.
For the molecule `CCCCCCCCCC(=O)O[C@@H]1[C@@H](C)[C@@]2(O)[C@@H](C=C(CO)C[C@@]3(O)C(=O)C(C)=C[C@@H]23)[C@@H]2C(C)(C)[C@]12OC(=O)CCCCCCCCC` [PDD, 4α-phorbol 12,13-didecanoate], the “Expression of cell-adhesion proteins like E-cadherin, b-catenin and paxillin” value in data set [2] is “reduced”. Further, the “AKT, FAK and MAPK pathway activation” value in data set [3] is on record as “stimulated”.
By IC50 is commonly meant the concentration at which inhibition is half-maximal. Regarding `Cc1c(C(=O)Nc2cccc(C(F)(F)F)c2)cc(-c2ccccc2)n1CCCN1CCOCC1` [formula 1, 2-Methyl-1-[3-(4-morpholinyl)propyl]-5-phenyl-N-[3-(trifluoromethyl)phenyl]-1H-pyrrole-3-carboxamide], the half-maximal inhibitory concentration (IC50) on endogenous TRPV4 was 22 nM. Also, the “Solubility in DMSO” value in data set [4] (DMSO) is listed as 100 mM. Further, the Solubility in ethanol in data set [4] (ethanol) is reported as 25 mM.
On to `Cc1c(C(=O)Nc2cccc(C(F)(F)F)c2)cc(-c2ccccc2)n1CCCN1CCOCC1` [formula 3], for which the “Effect on 4α-PDD-induced Ca2+ responses” value at TRPV4 [5] is recorded as “reduces”.
